Measured values reported in patent US9688699B2, “3-(pyrimidine-2-yl)imidazo[1,2-a]pyridines” (Bayer Pharma Aktiengesellschaft, priority 2014, dated 2017).
Counter-ions that a name gives are not always drawn.

Key:
[1] = biological target: T1, human phosphodiesterase 5 (PDE 5) (Homo sapiens, UniProt O76074); assay: Inhibition of human phosphodiesterase 5 (PDE 5) (B-3); format: biochemical; conditions: PDE 5 preparation from human platelets; [8-3H] cGMP substrate, SPA; in some cases means of individual determinations
T1 construct: PDE 5 preparations are obtained from human platelets by disruption; from tissue; host or cells: human platelets (Mono Q ion exchange fractions with PDE 5 activity)
Experimental: B-3. Inhibition of Human Phosphodiesterase 5 (PDE 5)
PDE 5 preparations are obtained from human platelets by disruption (Microfluidizer®, 800 bar, 3 passes), followed by centrifugation (75 000 g, 60 min, 4° C.) and ion exchange chromatography of the supernatant on a Mono Q 10/10 column (linear sodium chloride gradient, elution with a 0.2-0.3M solution of sodium chloride in buffer (20 mM Hepes pH 7.2, 2 mM magnesium chloride). Fractions having PDE 5 activity are combined (PDE 5 preparation) and stored at −80° C.
To determine their in vitro action on human PDE 5, the test substances are dissolved in 100% DMSO and serially diluted. Typically, dilution series (1:3) from 200 μM to 0.091 μM are prepared (resulting final concentrations in the test: 4 μM to 0.0018 μM). In each case 2 μl of the diluted substance solutions are placed into the wells of microtitre plates (Isoplate-96/200 W; Perkin Elmer). Subsequently, 50 μl of a dilution of the above-described PDE 5 preparation are added. The dilution of the PDE 5 preparation is chosen such that during the later incubation less than 70% of the substrate are converted (typical dilution: 1:100; dilution buffer: 50 mM tris/hydrochloric acid pH 7.5, 8.3 mM magnesium chloride, 1.7 mM EDTA, 0.2% BSA). The substrate, [8-^3H] cyclic guanosine-3′,5′-monophosphate (1 μCi/μl; Perkin Elmer), is diluted 1:2000 with assay buffer (50 mM tris/hydrochloric acid pH 7.5, 8.3 mM magnesium chloride, 1.7 mM EDTA) to a concentration of 0.0005 μCi/μl. By addition of 50 μl (0.025 μCi) of the diluted substrate, the enzyme reaction is finally started. The test mixtures are incubated at room temperature for 60 min and the reaction is stopped by adding 25 μl of a suspension of 18 mg/ml yttrium scintillation proximity beads in water (phosphodiesterase beads for SPA assays, RPNQ 0150, Perkin Elmer). The microtitre plates are sealed with a film and left to stand at room temperature for 60 min. Subsequently, the plates are analysed for 30 s per well in a Microbeta scintillation counter (Perkin Elmer). IC50 values are determined using the graphic plot of the substance concentration against percentage PDE 5 inhibition.

[2] = biological target: T2, recombinant guanylate cyclase reporter cell line (Rattus norvegicus, UniProt P19686+P20595); assay: Effect on a recombinant guanylate cyclase reporter cell line (B-2); format: cell-based; conditions: MEC = minimum effective concentration, in some cases mean values for individual determinations
T2 construct: expressed in transfected cells
T2 sequence (P19686 1-690): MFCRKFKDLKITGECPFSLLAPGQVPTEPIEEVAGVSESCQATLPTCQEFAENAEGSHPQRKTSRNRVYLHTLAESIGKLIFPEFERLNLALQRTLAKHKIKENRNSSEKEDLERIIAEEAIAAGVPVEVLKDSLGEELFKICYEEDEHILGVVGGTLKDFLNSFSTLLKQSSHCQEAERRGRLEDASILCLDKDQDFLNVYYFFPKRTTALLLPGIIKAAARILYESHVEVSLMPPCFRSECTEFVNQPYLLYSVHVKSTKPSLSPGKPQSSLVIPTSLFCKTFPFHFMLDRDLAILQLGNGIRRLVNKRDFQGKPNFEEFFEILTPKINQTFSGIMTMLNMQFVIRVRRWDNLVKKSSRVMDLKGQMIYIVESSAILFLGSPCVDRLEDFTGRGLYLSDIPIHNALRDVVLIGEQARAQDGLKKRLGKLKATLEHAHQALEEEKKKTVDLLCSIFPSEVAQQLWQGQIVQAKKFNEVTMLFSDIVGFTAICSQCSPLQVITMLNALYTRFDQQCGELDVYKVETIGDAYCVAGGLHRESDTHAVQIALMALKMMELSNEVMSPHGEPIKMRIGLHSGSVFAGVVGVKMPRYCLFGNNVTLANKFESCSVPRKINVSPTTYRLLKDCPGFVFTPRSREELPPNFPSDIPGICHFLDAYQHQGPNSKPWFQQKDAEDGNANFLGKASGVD
T2 sequence (P20595 1-619): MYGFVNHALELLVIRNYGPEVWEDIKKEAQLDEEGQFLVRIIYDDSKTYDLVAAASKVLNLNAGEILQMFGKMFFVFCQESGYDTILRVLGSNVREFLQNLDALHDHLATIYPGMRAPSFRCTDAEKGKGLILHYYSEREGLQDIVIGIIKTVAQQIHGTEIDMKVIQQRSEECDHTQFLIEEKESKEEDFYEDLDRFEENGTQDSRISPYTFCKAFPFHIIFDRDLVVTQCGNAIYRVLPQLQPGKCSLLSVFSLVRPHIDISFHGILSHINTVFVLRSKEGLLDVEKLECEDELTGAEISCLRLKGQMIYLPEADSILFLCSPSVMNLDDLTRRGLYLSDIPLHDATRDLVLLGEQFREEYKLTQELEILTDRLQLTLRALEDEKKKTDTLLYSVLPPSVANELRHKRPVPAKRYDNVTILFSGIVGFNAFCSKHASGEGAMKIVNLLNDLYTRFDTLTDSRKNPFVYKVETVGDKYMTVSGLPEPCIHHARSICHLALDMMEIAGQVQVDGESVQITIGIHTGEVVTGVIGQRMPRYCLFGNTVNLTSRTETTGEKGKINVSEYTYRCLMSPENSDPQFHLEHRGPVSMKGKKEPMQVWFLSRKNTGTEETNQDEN
Experimental: B-2. Effect on a Recombinant Guanylate Cyclase Reporter Cell Line
The cellular activity of the compounds according to the invention is determined using a recombinant guanylate cyclase reporter cell line, as described in F. Wunder et al., Anal. Biochem. 339, 104-112 (2005).
Representative MEC values (MEC=minimum effective concentration) for the compounds of the invention are shown in Table 1 below (in some cases as mean values for individual determinations): […]

IC50 [1] [nM]	MEC [2] [µM]	SMILES
68	3	Cc1nc2c(OCc3c(F)cccc3F)cccn2c1-c1nc(CNS(C)(=O)=O)c2c(n1)NC(=O)C2(C)C [Example 65, N-[(2-{8-[(2,6-Difluorobenzyl)oxy]-2-methylimidazo[1,2-a]pyridin-3-yl}-5,5-dimethyl-6-oxo-6,7-dihydro-5H-pyrrolo[2,3-d]pyrimidin-4-yl)methyl]methanesulphonamide]
–	3	CCCc1nc(-c2c(C)nc3c(OCc4c(F)ccc(F)c4F)cccn23)nc2c1C(C)(C)C(=O)N2 [Example 72, 5,5-Dimethyl-2-{2-methyl-8-[(2,3,6-trifluorobenzyl)oxy]imidazo[1,2-a]pyridin-3-yl}-4-propyl-5,7-dihydro-6H-pyrrolo[2,3-d]pyrimidin-6-one]
200	–	Cc1nc2c(OCc3c(F)ccc(F)c3F)cccn2c1-c1nc(CCC2CC2)c2c(n1)NC(=O)C2(C)C [Example 71, 4-(2-Cyclopropylethyl)-5,5-dimethyl-2-{2-methyl-8-[(2,3,6-trifluorobenzyl)oxy]imidazo[1,2-a]pyridin-3-yl}-5,7-dihydro-6H-pyrrolo[2,3-d]pyrimidin-6-one]
22	–	Cc1ncc(-c2nc(-c3c(C)nc4c(OCc5c(F)ccc(F)c5F)cccn34)nc3c2C(C)(C)C(=O)N3)s1 [Example 73, 5,5-Dimethyl-4-(2-methyl-1,3-thiazol-5-yl)-2-{2-methyl-8-[(2,3,6-trifluorobenzyl)oxy]imidazo[1,2-a]pyridin-3-yl}-5,7-dihydro-6H-pyrrolo[2,3-d]pyrimidin-6-one]
140	–	Cc1nc2c(OCc3c(F)ccc(F)c3F)cccn2c1-c1nc2c(c(OCCC(F)(F)F)n1)C(C)(C)C(=O)N2 [Example 77, 5,5-Dimethyl-2-{2-methyl-8-[(2,3,6-trifluorobenzyl)oxy]imidazo[1,2-a]pyridin-3-yl}-4-(3,3,3-trifluoropropoxy)-5,7-dihydro-6H-pyrrolo[2,3-d]pyrimidin-6-one]
46	–	Cc1nc2c(OCc3c(F)ccc(F)c3F)cccn2c1-c1nc2c(c(OCC3CC3)n1)C(C)(C)C(=O)N2 [Example 76, 4-(Cyclopropylmethoxy)-5,5-dimethyl-2-{2-methyl-8-[(2,3,6-trifluorobenzyl)oxy]imidazo[1,2-a]pyridin-3-yl}-5,7-dihydro-6H-pyrrolo[2,3-d]pyrimidin-6-one]
430	–	Cc1nc2c(OCc3c(F)ccc(F)c3F)cccn2c1-c1nc(C#CC2CC2)c2c(n1)NC(=O)C2(C)C [Example 70, 4-(Cyclopropylethynyl)-5,5-dimethyl-2-{2-methyl-8-[(2,3,6-trifluorobenzyl)oxy]imidazo[1,2-a]pyridin-3-yl}-5,7-dihydro-6H-pyrrolo[2,3-d]pyrimidin-6-one]

Second part, the compound before the results:

SMILES	IC50 [1] [nM]	MEC [2] [µM]
Cc1nc2c(OCc3c(F)cccc3F)cccn2c1-c1nc(NCC2(O)CC2)c2c(n1)NC(=O)C2(C)C [Example 17, 2-{8-[(2,6-difluorobenzyl)oxy]-2-methylimidazo[1,2-a]pyridin-3-yl}-4-{[(1-hydroxycyclopropyl)methyl]amino}-5,5-dimethyl-5,7-dihydro-6H-pyrrolo[2,3-d]pyrimidin-6-one]	4.6	0.3
Cc1nc2c(OCc3c(F)ccc(F)c3F)cccn2c1-c1nc2c(c(C(=O)NCC(C)(N)C(F)(F)F)n1)C(C)(C)C(=O)N2 (racemic) [Example 57, rac-N-(2-amino-3,3,3-trifluoro-2-methylpropyl)-5,5-dimethyl-2-{2-methyl-8-[(2,3,6-trifluorobenzyl)oxy]imidazo[1,2-a]pyridin-3-yl}-6-oxo-6,7-dihydro-5H-pyrro1o[2,3-d]pyrimidine-4-carboxamide]	3	–
Cc1nc2c(OCc3c(F)cccc3F)cccn2c1-c1nc2c(c(C(=O)O)n1)C(C)(C)C(=O)N2 [Example 51, 2-{8-[(2,6-Difluorobenzyl)oxy]-2-methylimidazo[1,2-a]pyridin-3-yl}-5,5-dimethyl-6-oxo-6,7-dihydro-5H-pyrrolo[2,3-d]pyrimidine-4-carboxylic acid]	430	10
Cc1nc2c(OCc3c(F)cccc3F)cccn2c1-c1nc(O)c2c(n1)NC(=O)C2(C)C(F)(F)F (racemic) [Example 8, rac-2-{8-[(2,6-Difluorobenzyl)oxy]-2-methylimidazo[1,2-a]pyridin-3-yl}-4-hydroxy-5-methyl-5-(trifluoromethyl)-5,7-dihydro-6H-pyrrolo[2,3-d]pyrimidin-6-one trifluoroacetate]	120	1
Cc1nc2c(OCc3c(F)cccc3F)cccn2c1-c1nc(O)c2c(n1)NC(=O)C2(C)C [Example 5, 2-{8-[(2,6-Difluorobenzyl)oxy]-2-methylimidazo[1,2-a]pyridin-3-yl}-4-hydroxy-5,5-dimethyl-5,7-dihydro-6H-pyrrolo[2,3-d]pyrimidin-6-one trifluoroacetate]	690	3
Cc1nc2c(OCc3c(F)cccc3F)cccn2c1-c1nc(NCC(C)(C)O)c2c(n1)NC(=O)C2(C)C [Example 16, 2-{8-[(2,6-Difluorobenzyl)oxy]-2-methylimidazo[1,2-a]pyridin-3-yl}-4-[(2-hydroxy-2-methylpropyl)amino]-5,5-dimethyl-5,7-dihydro-6H-pyrrolo[2,3-d]pyrimidin-6-one]	4.8	0.65
Cc1nc2c(OCc3c(F)cccc3F)cccn2c1-c1nc2c(c(OCCO)n1)C(C)(C)C(=O)N2 [Example 47, 2-{8-[(2,6-Difluorobenzyl)oxy]-2-methylimidazo[1,2-a]pyridin-3-yl}-4-(2-hydroxyethoxy)-5,5-dimethyl-5,7-dihydro-6H-pyrrolo[2,3-d]pyrimidin-6-one]	–	0.3
Cc1nc2c(OCc3c(F)ccc(F)c3F)cccn2c1-c1nc(NCC(C)(C)N)c2c(n1)NC(=O)C2(C)C [Example 31, 4-[(2-Amino-2-methylpropyl)amino]-5,5-dimethyl-2-{2-methyl-8-[(2,3,6-trifluorobenzyl)oxy]imidazo[1,2-a]pyridin-3-yl}-5,7-dihydro-6H-pyrrolo[2,3-d]pyrimidin-6-one formate]	1.2	–
